Converted amounts (≈) assume the structure as drawn.
Assay: Solubility of each monomer in chlorobenzene at room temperature
Type: physicochemical
Excerpt: The term “solubility of the unit” as used herein means measurement of the solubility in a solution of each unit monomer at room temperature.

Brc1ccc(-c2ccc(-c3ccc(Br)s3)c3nsnc23)s1 showed a Solubility of 5000 µg/mL (≈ 10.9 mM).

— US9748489B2, “Copolymer and organic solar cell comprising same” (LG CHEM, LTD., priority 2013, dated 2017)
